Publication PMC8369945 (Hepatology Communications, 2021)
“Also recorded” adds a separate entry of the source.

What was measured:
[1] = system: C57BL/6J mice on CD or MCD diet; assay: Choline-deficient; format: in vivo, mouse; details: for markers of NASH progression: two diet models (d-S-pio only CD)
[2] = Phase 1a clinical study, pharmacokinetics in healthy subjects; details: human, single 22.5 mg PXL065
[3] = system: C57BL/6J male mice; assay: Weight gain study in mouse; format: in vivo; details: normal C57BL/6J male mice, pio 30, PXL065 15, d-S-pio 15 mg/kg/day, twice daily; for body weight versus vehicle: after 10 days of dosing
[4] = system: db/db mice; assay: db/db mouse model of T2DM; format: in vivo; details: 10 days once daily p.o., pio 30, PXL065 20, d-S-pio 20 mg/kg
[5] = biological target: T1, PPARα (Homo sapiens, UniProt Q07869); assay: PPARα coactivator recruitment
T1 sequence (Q07869 1-468): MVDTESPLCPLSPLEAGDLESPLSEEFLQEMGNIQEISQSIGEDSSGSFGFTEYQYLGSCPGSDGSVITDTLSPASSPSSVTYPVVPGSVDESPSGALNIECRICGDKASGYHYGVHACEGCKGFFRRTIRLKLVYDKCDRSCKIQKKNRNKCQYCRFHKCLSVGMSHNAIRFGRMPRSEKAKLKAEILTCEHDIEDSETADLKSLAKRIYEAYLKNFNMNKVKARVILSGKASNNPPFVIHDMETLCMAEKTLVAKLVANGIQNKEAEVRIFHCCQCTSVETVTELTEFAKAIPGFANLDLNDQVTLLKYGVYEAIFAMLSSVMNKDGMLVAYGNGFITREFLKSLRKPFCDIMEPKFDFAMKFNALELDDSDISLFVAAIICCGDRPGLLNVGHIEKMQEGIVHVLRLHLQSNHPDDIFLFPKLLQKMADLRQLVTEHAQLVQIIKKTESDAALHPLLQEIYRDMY

[6] = biological target: T2, PPARδ (Homo sapiens, UniProt Q03181); assay: PPARδ coactivator recruitment
T2 sequence (Q03181 1-441): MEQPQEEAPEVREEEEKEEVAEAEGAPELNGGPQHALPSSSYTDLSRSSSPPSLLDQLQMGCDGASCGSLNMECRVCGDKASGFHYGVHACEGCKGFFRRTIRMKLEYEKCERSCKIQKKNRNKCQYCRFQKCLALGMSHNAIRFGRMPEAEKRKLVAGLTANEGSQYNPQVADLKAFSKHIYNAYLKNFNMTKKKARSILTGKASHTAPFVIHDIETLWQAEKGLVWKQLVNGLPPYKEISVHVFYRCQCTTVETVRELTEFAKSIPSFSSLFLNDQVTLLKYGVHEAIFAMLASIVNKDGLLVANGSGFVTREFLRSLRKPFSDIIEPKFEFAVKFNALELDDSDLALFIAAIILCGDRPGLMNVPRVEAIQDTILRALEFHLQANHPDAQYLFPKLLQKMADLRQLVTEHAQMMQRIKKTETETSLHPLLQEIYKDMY

Row | Structure (SMILES) | adiponectin ([1]; CD diet mice) | reduction of hepatic steatosis and triglycerides, compared with pioglitazone ([1]; CD diet mice) | markers of NASH progression [1] | exposure to (R)-pioglitazone, higher than in the 45-mg Actos group [2] [%] | exposure to the (S)-enantiomer, lower than in the 45-mg Actos group [2] [%] | body weight versus vehicle [3] | inflammatory markers serum amyloid A, IL-1β and IL-6 [4] | serum adiponectin [4] | body-weight loss compared with vehicle- or PXL065-treated animals ([1]; MCD diet) | fluid retention (total body water) [3] | agonist activity at PPARα [5] | serum insulin [4] | agonist activity at PPARδ [6] | hepatic fibrosis ([1]; either diet)
1 | [2H][C@]1(Cc2ccc(OCCc3ccc(CC)cn3)cc2)SC(=O)NC1=O [PXL065, deuterated (R)‐pioglitazone] | increase | superior to pioglitazone | significantly affected all markers of NASH progression | 19 | 42 | did not increase body weight | significantly decreased | nonsignificant trend |  |  |  |  |  | 
2 | CCc1ccc(CCOc2ccc(CC3SC(=O)NC3=O)cc2)nc1 (centres unmarked) [pioglitazone, reference compound] | increase |  | significantly affected all markers of NASH progression |  |  | significantly increased body weight over vehicle | significantly decreased | significantly increased | weight loss tended to be less | trend was observed for increased fluid retention; also recorded: significant increase in total body water | Neither pioglitazone, PXL065, nor d‐S‐pio showed binding to PPARα or agonist activity at PPARα or PPARδ | significantly decreased | Neither pioglitazone, PXL065, nor d‐S‐pio showed binding to PPARα or agonist activity at PPARα or PPARδ | 
3 | [2H][C@@]1(Cc2ccc(OCCc3ccc(CC)cn3)cc2)SC(=O)NC1=O [d‐S‐pio, deuterated (S)‐pioglitazone] | increase |  | overall without effect |  |  | significantly increased body weight over vehicle | no effect | significantly increased |  | trend was observed for increased fluid retention; also recorded: a trend was observed |  | trend toward significant reduction |  | antifibrotic effect similar to that observed with PXL065 and pioglitazone
